Experimental data taken from patent US20240368150A1 (Hoffmann-La Roche Inc., priority 2021, published 2024).
Like-named read-outs stand apart in the source and are kept apart here.

Columns and labels:
[1] = tested on: primary human T-cells; experiment: Proliferation assay after 5 days (CellTiter-Glo, CD3 stimulation; PBS counter screen); format: cell-based; settings: Homo sapiens, T-cell, 120 h, CD3 stimulation; for Emax: 5 days, normalized to reference compound A1 as stimulator control = 100%, DMSO neutral control, read-out: Emax proliferation (% activation); for EC50: primary human T-cells, CellTiter-Glo after 5 days, EC50 of fitted sigmoidal curve, read-out: Tcell Proliferation CD3 EC50
Outline: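 Compounds were added to medium-only plates, and proliferation was read 5 days later as luminescence from CellTiter-Glo 2.0, whose ATP signal is proportional to cell number. Plates and reagent were equilibrated to room temperature for 45 min before an equal volume of reagent was added, with 15 min rocking.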

[2] = tested on: primary human T-cells

EC50 [2] | Structure (SMILES) | Emax [1] | EC50 [1]
583 nM | CC(C#N)c1nnc(-c2cc3c(cc2F)S(=O)(=O)C[C@H](N)C(=O)N3Cc2ccc(Cl)cc2)o1 (stereo partly drawn) [Example 103, 2-[5-[(3R)-3-amino-5-[(4-chlorophenyl)methyl]-8-fluoro-1,1,4-trioxo-2,3-dihydro-1λ^6,5-benzothiazepin-7-yl]-1,3,4-oxadiazol-2-yl]propanenitrile] | 102% | 213 nM
277 nM | CC(C)(C#N)c1nnc(-c2cc3c(cc2F)S(=O)(=O)C[C@H](N)C(=O)N3Cc2ccc(Cl)cc2)o1 [Example 104, 2-methyl-2-[5-[(3R)-3-amino-5-[(4-chlorophenyl)methyl]-8-fluoro-1,1,4-trioxo-2,3-dihydro-1λ^6,5-benzothiazepin-7-yl]-1,3,4-oxadiazol-2-yl]propanenitrile] | 112% | 150 nM
1170 nM | N[C@H]1CS(=O)(=O)c2cc(F)c(-c3nnc(C4CNCCC4(F)F)o3)cc2N(Cc2ccc(Cl)cc2)C1=O (stereo partly drawn) [Example 105, (3R)-3-amino-5-[(4-chlorophenyl)methyl]-7-[5-(4,4-difluoro-3-piperidyl)-1,3,4-oxadiazol-2-yl]-8-fluoro-1,1-dioxo-2,3-dihydro-1λ^6,5-benzothiazepin-4-one] | 31% | 4160 nM
784 nM | Cc1ccc(-c2nnc(-c3cc4c(cc3F)S(=O)(=O)C[C@H](N)C(=O)N4Cc3ccc(Cl)cc3)o2)cc1 [Example 106, (3R)-3-amino-5-[(4-chlorophenyl)methyl]-8-fluoro-1,1-dioxo-7-[5-(p-tolyl)-1,3,4-oxadiazol-2-yl]-2,3-dihydro-1λ^6,5-benzothiazepin-4-one] | 111% | 254 nM
188 nM | Cc1cccc(-c2nnc(-c3cc4c(cc3F)S(=O)(=O)C[C@H](N)C(=O)N4Cc3ccc(Cl)cc3)o2)c1 [Example 107, (3R)-3-amino-5-[(4-chlorophenyl)methyl]-8-fluoro-7-[5-(m-tolyl)-1,3,4-oxadiazol-2-yl]-1,1-dioxo-2,3-dihydro-1λ^6,5-benzothiazepin-4-one] | 134% | 955 nM
498 nM | N[C@H]1CS(=O)(=O)c2cc(F)c(-c3nnc(-c4ccccc4F)o3)cc2N(Cc2ccc(Cl)cc2)C1=O [Example 108, (3R)-3-amino-5-[(4-chlorophenyl)methyl]-8-fluoro-7-[5-(2-fluorophenyl)-1,3,4-oxadiazol-2-yl]-1,1-dioxo-2,3-dihydro-1λ^6,5-benzothiazepin-4-one] | 117% | 1530 nM
1500 nM | Cc1nc(-c2nnc(-c3cc4c(cc3F)S(=O)(=O)C[C@H](N)C(=O)N4Cc3ccc(Cl)cc3)o2)no1 [Example 109, (3R)-3-amino-5-[(4-chlorophenyl)methyl]-8-fluoro-7-[5-(5-methyl-1,2,4-oxadiazol-3-yl)-1,3,4-oxadiazol-2-yl]-1,1-dioxo-2,3-dihydro-1λ^6,5-benzothiazepin-4-one] | 86% | 1740 nM
232 nM | N[C@H]1CS(=O)(=O)c2cc(F)c(-c3nnc(C4CC5(CCOC5)C4)o3)cc2N(Cc2ccc(Cl)cc2)C1=O (stereo partly drawn) [Example 110, (3R)-3-amino-5-[(4-chlorophenyl)methyl]-8-fluoro-7-[5-(6-oxaspiro[3.4]octan-2-yl)-1,3,4-oxadiazol-2-yl]-1,1-dioxo-2,3-dihydro-1λ^6,5-benzothiazepin-4-one] | 131% | 125 nM
3130 nM | CC(C)(CN)c1nnc(-c2cc3c(cc2F)S(=O)(=O)C[C@H](N)C(=O)N3Cc2ccc(Cl)cc2)o1 [Example 111, (3R)-3-amino-7-[5-(2-amino-1,1-dimethyl-ethyl)-1,3,4-oxadiazol-2-yl]-5-[(4-chlorophenyl)methyl]-8-fluoro-1,1-dioxo-2,3-dihydro-1λ^6,5-benzothiazepin-4-one] | 97% | 556 nM
3230 nM | N[C@H]1CS(=O)(=O)c2cc(F)c(-c3nnc(C4(C(F)F)CNC4)o3)cc2N(Cc2ccc(Cl)cc2)C1=O [Example 112, (3R)-3-amino-5-[(4-chlorophenyl)methyl]-7-[5-[3-(difluoromethyl)azetidin-3-yl]-1,3,4-oxadiazol-2-yl]-8-fluoro-1,1-dioxo-2,3-dihydro-1λ^6,5-benzothiazepin-4-one] | 124% | 1050 nM
100 nM | CC1(c2nnc(-c3cc4c(cc3F)S(=O)(=O)C[C@H](N)C(=O)N4Cc3ccc(Cl)cc3)o2)CC1 [Example 113, (3R)-3-amino-5-[(4-chlorophenyl)methyl]-8-fluoro-7-[5-(1-methylcyclopropyl)-1,3,4-oxadiazol-2-yl]-1,1-dioxo-2,3-dihydro-1λ^6,5-benzothiazepin-4-one] | 106% | 107 nM
756 nM | CC(C)N(C)C(=O)c1nnc(-c2cc3c(cc2F)S(=O)(=O)C[C@H](N)C(=O)N3Cc2ccc(Cl)cc2)o1 [Example 114, N-isopropyl-N-methyl-5-[(3R)-3-amino-5-[(4-chlorophenyl)methyl]-8-fluoro-1,1,4-trioxo-2,3-dihydro-1λ^6,5-benzothiazepin-7-yl]-1,3,4-oxadiazole-2-carboxamide] | 65% | > 10000 nM
2210 nM | CC(CO)(CCl)c1nnc(-c2cc3c(cc2F)S(=O)(=O)C[C@H](N)C(=O)N3Cc2ccc(Cl)cc2)o1 (stereo partly drawn) [Example 115, (3R)-3-amino-7-[5-[1-(chloromethyl)-2-hydroxy-1-methyl-ethyl]-1,3,4-oxadiazol-2-yl]-5-[(4-chlorophenyl)methyl]-8-fluoro-1,1-dioxo-2,3-dihydro-1λ^6,5-benzothiazepin-4-one] | 127% | 495 nM
7340 nM | NC1CC2(C1)CC(c1nnc(-c3cc4c(cc3F)S(=O)(=O)C[C@H](N)C(=O)N4Cc3ccc(Cl)cc3)o1)C2 (stereo partly drawn) [Example 116, (3R)-3-amino-7-[5-(2-aminospiro[3.3]heptan-6-yl)-1,3,4-oxadiazol-2-yl]-5-[(4-chlorophenyl)methyl]-8-fluoro-1,1-dioxo-2,3-dihydro-1λ^6,5-benzothiazepin-4-one] | 84% | 4640 nM
3570 nM | N[C@H]1CS(=O)(=O)c2cc(F)c(-c3nnc(C(=O)N4CCC(F)(F)C4)o3)cc2N(Cc2ccc(Cl)cc2)C1=O [Example 117, (3R)-3-amino-5-[(4-chlorophenyl)methyl]-7-[5-(3,3-difluoropyrrolidine-1-carbonyl)-1,3,4-oxadiazol-2-yl]-8-fluoro-1,1-dioxo-2,3-dihydro-1λ^6,5-benzothiazepin-4-one] | 68% | 5020 nM
228 nM | N#CC1(c2nnc(-c3cc4c(cc3F)S(=O)(=O)C[C@H](N)C(=O)N4Cc3ccc(Cl)cc3)o2)CC1 [Example 118, 1-[5-[(3R)-3-amino-5-[(4-chlorophenyl)methyl]-8-fluoro-1,1,4-trioxo-2,3-dihydro-1λ^6,5-benzothiazepin-7-yl]-1,3,4-oxadiazol-2-yl]cyclopropanecarbonitrile] | 99% | 669 nM
1210 nM | CC(C)(O)c1nnc(-c2cc3c(cc2F)S(=O)(=O)C[C@H](N)C(=O)N3Cc2ccc(Cl)cc2)o1 [Example 119, (3R)-3-amino-5-[(4-chlorophenyl)methyl]-8-fluoro-7-[5-(1-hydroxy-1-methyl-ethyl)-1,3,4-oxadiazol-2-yl]-1,1-dioxo-2,3-dihydro-1λ^6,5-benzothiazepin-4-one] | 97% | 730 nM
256 nM | COC(=O)N1CC2(c3nnc(-c4cc5c(cc4F)S(=O)(=O)C[C@H](N)C(=O)N5Cc4ccc(Cl)cc4)o3)CC1CO2 (stereo partly drawn) [Example 120, methyl 1-[5-[(3R)-3-amino-5-[(4-chlorophenyl)methyl]-8-fluoro-1,1,4-trioxo-2,3-dihydro-1λ^6,5-benzothiazepin-7-yl]-1,3,4-oxadiazol-2-yl]-2-oxa-5-azabicyclo[2.2.1]heptane-5-carboxylate] | 96% | 129 nM
6370 nM | N[C@H]1CS(=O)(=O)c2cc(F)c(-c3nnc(C45CNCCC4C5)o3)cc2N(Cc2ccc(Cl)cc2)C1=O (stereo partly drawn) [Example 121, (3R)-3-amino-7-[5-(3-azabicyclo[4.1.0]heptan-1-yl)-1,3,4-oxadiazol-2-yl]-5-[(4-chlorophenyl)methyl]-8-fluoro-1,1-dioxo-2,3-dihydro-1λ^6,5-benzothiazepin-4-one] | 72% | 4760 nM
1650 nM | CC(C)(C)c1nnc(-c2ccc3c(c2)N(Cc2ccc(S(=O)(=O)C(F)(F)F)cc2)C(=O)[C@@H](N)CS3(=O)=O)o1 [Example 123, (3R)-3-amino-7-(5-tert-butyl-1,3,4-oxadiazol-2-yl)-1,1-dioxo-5-[[4-(trifluoromethylsulfonyl)phenyl]methyl]-2,3-dihydro-1λ^6,5-benzothiazepin-4-one] | 82% | > 2730 nM
1440 nM | CN(C)C(=O)C(C)(C)c1nnc(-c2cc3c(cc2F)S(=O)(=O)C[C@H](N)C(=O)N3Cc2ccc(Cl)cc2)o1 [Example 125, N,N,2-trimethyl-2-[5-[(3R)-3-amino-5-[(4-chlorophenyl)methyl]-8-fluoro-1,1,4-trioxo-2,3-dihydro-1λ^6,5-benzothiazepin-7-yl]-1,3,4-oxadiazol-2-yl]propanamide] | 112% | 587 nM
62.4 nM | N[C@H]1CS(=O)(=O)c2cc(F)c(-c3nnc(C4(C(F)(F)F)CC4)o3)cc2N(Cc2ccc(Cl)cc2)C1=O [Example 126, (3R)-3-amino-5-[(4-chlorophenyl)methyl]-8-fluoro-1,1-dioxo-7-[5-[1-(trifluoromethyl)cyclopropyl]-1,3,4-oxadiazol-2-yl]-2,3-dihydro-1λ^6,5-benzothiazepin-4-one] | 135% | 113 nM
